In ChEMBL document CHEMBL1201862, “PubChem BioAssay data set” (2004):
Calls of active or inactive are those of the source.

Columns and labels:
[1] = loss of viability in HepG2 cells – cell-based, CellTiter-Glo, cherry-picked, cytotoxicity control for Shn3 inhibitor project, dose response (AID 624134); format: functional
[2] = biological target: T1, Ubiquitin-conjugating enzyme E2 N (Homo sapiens, UniProt P61088); format: functional
T1 sequence (P61088 whole entry): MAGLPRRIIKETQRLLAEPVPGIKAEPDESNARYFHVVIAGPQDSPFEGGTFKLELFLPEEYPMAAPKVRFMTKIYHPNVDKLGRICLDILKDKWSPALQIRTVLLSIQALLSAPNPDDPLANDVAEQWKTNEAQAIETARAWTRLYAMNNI

[3] = biological target: Genome polyprotein (dengue virus type 2, UniProt P29990); assay: flavivirus cap methylation enzyme inhibition – biochemical, confirmation dose response, primary screen (AID 588689); format: functional
Sequence of Genome polyprotein (P29990 2492-3391 limits assumed): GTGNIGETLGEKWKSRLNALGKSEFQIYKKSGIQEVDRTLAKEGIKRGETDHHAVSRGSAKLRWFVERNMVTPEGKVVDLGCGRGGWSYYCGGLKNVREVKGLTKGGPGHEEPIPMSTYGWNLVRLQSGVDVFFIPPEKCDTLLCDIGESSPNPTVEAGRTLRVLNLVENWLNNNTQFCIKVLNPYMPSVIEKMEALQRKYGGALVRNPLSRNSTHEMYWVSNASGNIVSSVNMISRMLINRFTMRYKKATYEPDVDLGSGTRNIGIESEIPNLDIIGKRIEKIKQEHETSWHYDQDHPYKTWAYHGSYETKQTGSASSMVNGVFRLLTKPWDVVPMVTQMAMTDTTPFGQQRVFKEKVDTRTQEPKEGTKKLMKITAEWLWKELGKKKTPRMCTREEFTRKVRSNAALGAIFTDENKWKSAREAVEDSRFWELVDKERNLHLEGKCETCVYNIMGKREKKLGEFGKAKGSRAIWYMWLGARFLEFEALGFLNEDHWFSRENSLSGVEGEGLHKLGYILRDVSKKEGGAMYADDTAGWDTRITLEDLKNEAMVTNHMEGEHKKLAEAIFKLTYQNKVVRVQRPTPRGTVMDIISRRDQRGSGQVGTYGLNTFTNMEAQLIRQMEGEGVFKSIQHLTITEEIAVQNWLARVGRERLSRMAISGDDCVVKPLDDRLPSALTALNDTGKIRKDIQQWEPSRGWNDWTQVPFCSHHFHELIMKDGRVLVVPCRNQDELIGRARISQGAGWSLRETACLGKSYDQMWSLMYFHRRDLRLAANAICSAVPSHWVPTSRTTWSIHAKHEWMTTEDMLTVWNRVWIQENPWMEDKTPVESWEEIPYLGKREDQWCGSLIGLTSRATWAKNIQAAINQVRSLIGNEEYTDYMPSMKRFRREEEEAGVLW

[4] = reduction of Shn3 3'UTR-driven luciferase in osteoblasts – cell-based, Clone20 osteoblasts, firefly luciferase, cherry-picked, dose response (AID 624132); format: functional;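 further: firefly luciferase luminescence from reporter carrying the Shn3 3'UTR in osteoblasts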
[5] = Luminescence Cell-Based Dose Retest to Confirm Inhibitors of Cancer Stem Cells. [Related pubchem assays (depositor defined):AID2717, AID2721]; format: functional; settings: Homo sapiens
[6] = biological target: Beta Lactamase (Pseudomonas aeruginosa, UniProt Q932Y6); assay: BLA reporter interference, concentration series – BLA reporter cells, FRET fluorescence, artefact control for TLR9-MyD88 binding inhibitor project, dose response (AID 588341); format: cell-based;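 further: cell based assay in CHO-K1 cells stably expressing beta-lactamase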
Sequence of Beta Lactamase (Q932Y6 whole entry): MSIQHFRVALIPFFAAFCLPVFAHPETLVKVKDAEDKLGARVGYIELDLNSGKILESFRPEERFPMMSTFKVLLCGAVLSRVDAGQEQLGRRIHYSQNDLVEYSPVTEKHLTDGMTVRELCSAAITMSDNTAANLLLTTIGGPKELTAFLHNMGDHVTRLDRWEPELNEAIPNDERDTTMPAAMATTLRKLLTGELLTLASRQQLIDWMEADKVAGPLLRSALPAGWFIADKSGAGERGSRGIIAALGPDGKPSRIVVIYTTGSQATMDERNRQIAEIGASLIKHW

[7] = non-specific 3'UTR reporter inhibition in Clone20-Shn3RL – cell-based, Renilla luciferase, cherry-picked, counter-screen for Shn3 inhibitor project, dose response (AID 624133); format: functional
[8] = biological target: T2, Replicative DNA helicase DnaB (Mycobacterium tuberculosis, UniProt P9WMR3); assay: DnaB intein splicing inhibitors, dose response, biochemical, cell-free fluorescence (AID 449749); format: functional
T2 sequence (P9WMR3 whole entry): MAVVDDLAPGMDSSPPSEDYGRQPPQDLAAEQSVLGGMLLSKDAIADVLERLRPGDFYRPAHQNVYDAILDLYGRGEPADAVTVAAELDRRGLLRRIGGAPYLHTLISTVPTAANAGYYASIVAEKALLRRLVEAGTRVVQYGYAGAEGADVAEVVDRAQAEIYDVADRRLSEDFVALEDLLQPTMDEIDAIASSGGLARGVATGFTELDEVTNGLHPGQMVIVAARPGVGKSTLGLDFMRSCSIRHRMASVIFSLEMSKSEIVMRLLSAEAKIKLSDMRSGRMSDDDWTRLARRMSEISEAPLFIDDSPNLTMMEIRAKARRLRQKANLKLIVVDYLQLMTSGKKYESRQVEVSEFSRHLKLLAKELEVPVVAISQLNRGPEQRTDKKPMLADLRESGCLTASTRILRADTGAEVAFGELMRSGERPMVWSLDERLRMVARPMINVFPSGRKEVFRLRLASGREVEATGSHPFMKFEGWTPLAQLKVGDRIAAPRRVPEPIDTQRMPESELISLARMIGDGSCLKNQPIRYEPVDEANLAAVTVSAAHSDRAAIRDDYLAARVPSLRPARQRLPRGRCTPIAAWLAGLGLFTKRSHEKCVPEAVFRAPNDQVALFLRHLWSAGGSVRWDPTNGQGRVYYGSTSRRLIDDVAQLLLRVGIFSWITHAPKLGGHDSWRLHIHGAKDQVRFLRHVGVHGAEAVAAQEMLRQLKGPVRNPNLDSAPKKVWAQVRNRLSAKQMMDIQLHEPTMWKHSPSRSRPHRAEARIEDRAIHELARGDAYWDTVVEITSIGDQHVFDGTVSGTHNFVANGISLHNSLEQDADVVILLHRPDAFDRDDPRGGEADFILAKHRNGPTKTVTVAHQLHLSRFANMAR

[9] = biological target: T1, Ubiquitin-conjugating enzyme E2 N; format: functional; remark: listed apart in the source
[10] = biological target: T3, Protein RecA (Mycobacterium tuberculosis, UniProt P9WHJ3); assay: Fluorescence Cell-Free Homogeneous Dose Retest to Identify Inhibitors of RecA-Intein Splicing Activity. [Related pubchem assays (depositor defined):AID2097, AID2223, AID489010, AID492950]; format: functional
T3 sequence (P9WHJ3 whole entry): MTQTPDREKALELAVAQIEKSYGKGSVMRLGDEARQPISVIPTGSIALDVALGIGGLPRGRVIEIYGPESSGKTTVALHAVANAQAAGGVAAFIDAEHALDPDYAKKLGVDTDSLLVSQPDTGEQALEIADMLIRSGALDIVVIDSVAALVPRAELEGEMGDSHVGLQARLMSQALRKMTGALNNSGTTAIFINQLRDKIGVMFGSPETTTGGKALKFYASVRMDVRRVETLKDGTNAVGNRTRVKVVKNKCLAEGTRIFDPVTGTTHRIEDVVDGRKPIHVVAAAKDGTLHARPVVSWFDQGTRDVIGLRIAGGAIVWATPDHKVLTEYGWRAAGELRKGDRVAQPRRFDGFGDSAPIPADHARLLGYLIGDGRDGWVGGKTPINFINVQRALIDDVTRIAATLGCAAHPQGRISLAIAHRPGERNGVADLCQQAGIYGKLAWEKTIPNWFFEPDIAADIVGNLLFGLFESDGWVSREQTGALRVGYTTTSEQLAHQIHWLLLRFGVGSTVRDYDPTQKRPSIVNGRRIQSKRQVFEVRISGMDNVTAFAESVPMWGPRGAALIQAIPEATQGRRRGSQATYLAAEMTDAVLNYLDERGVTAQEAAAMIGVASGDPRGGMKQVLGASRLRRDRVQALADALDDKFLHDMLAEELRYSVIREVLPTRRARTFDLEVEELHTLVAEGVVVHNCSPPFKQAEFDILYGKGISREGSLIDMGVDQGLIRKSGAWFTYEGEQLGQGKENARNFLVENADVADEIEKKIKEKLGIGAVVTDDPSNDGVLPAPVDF

[11] = test system: CHO; assay: CHO cell viability loss, potency – luminescence, cytotoxicity control for TLR9-MyD88 binding inhibitor project, dose response (AID 588339); format: functional, cell-based, hamster; settings: Cricetulus griseus;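 further: CHO cells stably coexpressing TLR9 and MyD88 fusions from primary screen; compound exposure lasted 48 hours before viability readout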
[12] = biological target: T4, Microphthalmia-associated transcription factor (Homo sapiens, UniProt O75030); assay: reducers of TRPM1 reporter luminescence, concentration series – cell-based, SK-MEL-5, cherry-picked, set 3, MITF inhibitor project, dose response (AID 493073); format: functional;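 further: SK-MEL-5 melanoma cells with luciferase driven by the MITF target TRPM1 promoter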
T4 sequence (O75030 whole entry): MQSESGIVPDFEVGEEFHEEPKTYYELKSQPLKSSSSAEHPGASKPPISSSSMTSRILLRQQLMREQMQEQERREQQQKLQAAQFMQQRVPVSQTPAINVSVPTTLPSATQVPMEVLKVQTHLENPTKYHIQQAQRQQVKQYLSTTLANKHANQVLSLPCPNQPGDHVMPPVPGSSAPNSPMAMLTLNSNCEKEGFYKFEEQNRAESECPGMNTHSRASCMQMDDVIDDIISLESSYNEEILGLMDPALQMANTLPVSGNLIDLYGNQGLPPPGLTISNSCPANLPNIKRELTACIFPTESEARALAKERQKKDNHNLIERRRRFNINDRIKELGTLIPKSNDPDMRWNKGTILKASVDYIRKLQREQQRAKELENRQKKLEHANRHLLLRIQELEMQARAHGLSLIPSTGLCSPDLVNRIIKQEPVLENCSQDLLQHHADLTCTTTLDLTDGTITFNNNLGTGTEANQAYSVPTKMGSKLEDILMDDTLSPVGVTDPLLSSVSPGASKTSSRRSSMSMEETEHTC

[13] = biological target: T5, Bcl-2-related protein A1 (Mus musculus, UniProt Q07440); format: functional;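 further: confirmatory dose–response counterscreen on Bfl-1, used to check hits from a UBC13 polyubiquitin inhibitor campaign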
T5 sequence (Q07440 whole entry): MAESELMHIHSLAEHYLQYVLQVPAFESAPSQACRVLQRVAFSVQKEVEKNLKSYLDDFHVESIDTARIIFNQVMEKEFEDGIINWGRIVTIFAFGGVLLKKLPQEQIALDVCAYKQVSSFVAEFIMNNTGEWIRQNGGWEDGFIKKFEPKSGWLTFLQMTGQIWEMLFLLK

[14] = test system: HeLa; assay: ATP-based viability loss in HeLa cells – cell-based, CellTiter-Glo luminescence, cherry-pick samples, cytotoxicity control for MITF activator project, dose response (AID 540259); format: functional; settings: Homo sapiens
[15] = biological target: Protein Wnt-3a (Mus musculus, UniProt P27467); assay: antagonism of Wnt3a pathway luciferase reporter – Wnt-LIGHT cells, luminescence, selectivity assay for Gli-SUFU antagonist project, dose response (AID 651570); format: functional; settings: read-out: IC50_Mean;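 further: Wnt-LIGHT reporter cells stimulated with conditioned medium from Wnt3a-producing cells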
Sequence of Protein Wnt-3a (P27467 whole entry): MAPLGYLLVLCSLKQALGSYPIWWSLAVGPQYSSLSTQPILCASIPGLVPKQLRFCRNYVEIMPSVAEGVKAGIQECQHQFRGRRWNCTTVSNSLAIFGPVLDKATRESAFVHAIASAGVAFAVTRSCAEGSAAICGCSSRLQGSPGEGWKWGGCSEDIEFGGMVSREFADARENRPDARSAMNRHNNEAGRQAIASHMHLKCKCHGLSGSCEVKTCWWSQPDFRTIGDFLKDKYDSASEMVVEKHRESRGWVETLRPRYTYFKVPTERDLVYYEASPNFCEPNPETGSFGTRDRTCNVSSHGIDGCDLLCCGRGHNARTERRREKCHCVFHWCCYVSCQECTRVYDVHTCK

[16] = biological target: Prothrombin (Bos taurus, UniProt P00735); assay: thrombin protease inhibitors – biochemical, fluorescence polarization, uHTS hits, dose response (AID 602369); format: functional
[17] = biological target: 26S proteasome non-ATPase regulatory subunit 14 (Homo sapiens, UniProt O00487); assay: inhibition of proteasome subunit RPN11 – biochemical, fluorescence polarization, uHTS hits, confirmation (AID 602368); format: functional
Sequence of 26S proteasome non-ATPase regulatory subunit 14 (O00487 whole entry): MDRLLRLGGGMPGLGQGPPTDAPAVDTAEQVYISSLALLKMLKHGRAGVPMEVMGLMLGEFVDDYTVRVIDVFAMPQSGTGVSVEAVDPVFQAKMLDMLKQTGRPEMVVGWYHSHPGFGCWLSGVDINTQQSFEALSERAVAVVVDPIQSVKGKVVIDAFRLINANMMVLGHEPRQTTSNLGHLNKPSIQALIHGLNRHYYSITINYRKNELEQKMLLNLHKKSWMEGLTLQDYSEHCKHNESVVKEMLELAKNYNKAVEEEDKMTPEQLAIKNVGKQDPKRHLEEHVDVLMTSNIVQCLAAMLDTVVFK

[18] = biological target: 72 kDa type IV collagenase (Homo sapiens, UniProt P08253); assay: Dose Response validation of uHTS RPN11 inhibitor hits using a MMP-2 Fluorescence assay.; format: functional
Sequence of 72 kDa type IV collagenase (P08253 whole entry): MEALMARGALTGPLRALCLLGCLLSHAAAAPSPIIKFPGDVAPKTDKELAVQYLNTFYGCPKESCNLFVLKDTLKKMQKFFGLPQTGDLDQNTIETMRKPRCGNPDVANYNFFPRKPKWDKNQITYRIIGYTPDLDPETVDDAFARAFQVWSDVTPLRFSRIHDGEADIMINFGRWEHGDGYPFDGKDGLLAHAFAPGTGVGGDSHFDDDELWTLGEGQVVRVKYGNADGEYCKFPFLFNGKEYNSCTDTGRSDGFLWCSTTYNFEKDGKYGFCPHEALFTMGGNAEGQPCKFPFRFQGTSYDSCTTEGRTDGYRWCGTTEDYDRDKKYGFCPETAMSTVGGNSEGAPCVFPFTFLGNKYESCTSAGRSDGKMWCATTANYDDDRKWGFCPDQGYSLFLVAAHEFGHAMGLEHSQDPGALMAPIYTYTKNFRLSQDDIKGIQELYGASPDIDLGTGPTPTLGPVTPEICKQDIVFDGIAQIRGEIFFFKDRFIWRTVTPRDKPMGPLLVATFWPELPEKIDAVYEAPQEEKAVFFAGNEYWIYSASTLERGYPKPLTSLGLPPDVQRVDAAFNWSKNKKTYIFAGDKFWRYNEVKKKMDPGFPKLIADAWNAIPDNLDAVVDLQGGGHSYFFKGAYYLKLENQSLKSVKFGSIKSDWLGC

[19] = biological target: SWI/SNF-related matrix-associated actin-dependent regulator of chromatin subfamily A member 2 (Homo sapiens, UniProt P51531); assay: Luminescence-based cell-based high throughput dose response assay to identify activators of the function of SWI/SNF related, matrix associated, actin dependent regulator of chromatin, subfamily a, member 2 (SMARCA2, BRM).; format: functional
Sequence of SWI/SNF-related matrix-associated actin-dependent regulator of chromatin subfamily A member 2 (P51531 whole entry, the tested form may be a part): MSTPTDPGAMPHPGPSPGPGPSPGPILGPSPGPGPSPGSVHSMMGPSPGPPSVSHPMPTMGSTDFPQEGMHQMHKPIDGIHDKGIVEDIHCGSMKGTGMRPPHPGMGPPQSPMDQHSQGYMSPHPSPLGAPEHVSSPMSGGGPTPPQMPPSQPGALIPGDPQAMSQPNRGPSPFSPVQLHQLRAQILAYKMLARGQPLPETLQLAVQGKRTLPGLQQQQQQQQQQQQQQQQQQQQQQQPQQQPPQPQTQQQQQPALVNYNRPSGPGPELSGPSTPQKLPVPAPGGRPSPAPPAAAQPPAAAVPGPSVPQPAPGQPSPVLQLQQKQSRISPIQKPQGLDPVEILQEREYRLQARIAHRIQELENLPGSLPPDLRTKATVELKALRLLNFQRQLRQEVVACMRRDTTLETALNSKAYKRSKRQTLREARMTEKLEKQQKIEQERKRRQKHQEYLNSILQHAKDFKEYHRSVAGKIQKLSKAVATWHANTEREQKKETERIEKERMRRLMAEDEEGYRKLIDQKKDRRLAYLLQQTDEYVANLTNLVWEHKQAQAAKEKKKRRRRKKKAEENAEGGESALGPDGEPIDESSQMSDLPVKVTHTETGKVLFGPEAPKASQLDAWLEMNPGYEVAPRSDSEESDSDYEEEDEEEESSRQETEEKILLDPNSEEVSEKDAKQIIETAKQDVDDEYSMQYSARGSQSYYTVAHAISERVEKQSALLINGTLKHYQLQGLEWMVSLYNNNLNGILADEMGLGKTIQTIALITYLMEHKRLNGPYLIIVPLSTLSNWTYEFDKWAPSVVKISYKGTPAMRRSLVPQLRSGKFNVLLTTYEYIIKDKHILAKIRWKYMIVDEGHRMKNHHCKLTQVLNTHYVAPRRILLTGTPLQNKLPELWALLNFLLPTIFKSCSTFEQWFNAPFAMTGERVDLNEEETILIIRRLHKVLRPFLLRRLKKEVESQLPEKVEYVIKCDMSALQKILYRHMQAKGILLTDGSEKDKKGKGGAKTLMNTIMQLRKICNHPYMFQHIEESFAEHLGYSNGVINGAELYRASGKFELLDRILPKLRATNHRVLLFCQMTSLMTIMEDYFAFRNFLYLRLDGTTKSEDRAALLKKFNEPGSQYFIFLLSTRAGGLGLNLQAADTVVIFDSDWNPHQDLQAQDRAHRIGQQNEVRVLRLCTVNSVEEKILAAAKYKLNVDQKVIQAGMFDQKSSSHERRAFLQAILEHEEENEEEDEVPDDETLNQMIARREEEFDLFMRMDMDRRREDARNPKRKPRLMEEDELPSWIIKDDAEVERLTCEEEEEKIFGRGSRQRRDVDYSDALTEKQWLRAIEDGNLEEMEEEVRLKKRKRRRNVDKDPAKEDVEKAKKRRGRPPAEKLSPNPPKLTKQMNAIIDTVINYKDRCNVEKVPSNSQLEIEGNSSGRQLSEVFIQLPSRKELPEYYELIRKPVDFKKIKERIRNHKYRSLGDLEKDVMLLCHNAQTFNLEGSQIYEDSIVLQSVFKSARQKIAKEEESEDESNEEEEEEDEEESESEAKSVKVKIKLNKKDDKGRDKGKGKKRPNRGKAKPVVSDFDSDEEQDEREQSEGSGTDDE

[20] = biological target: T6, Carboxy-terminal domain RNA polymerase II polypeptide A small phosphatase 1 (Homo sapiens, UniProt Q9GZU7); assay: CTDSP1 inhibitors, concentration-response, biochemical, absorbance readout, ultra-high-throughput screen actives (AID 540297); format: functional
T6 sequence (Q9GZU7 whole entry): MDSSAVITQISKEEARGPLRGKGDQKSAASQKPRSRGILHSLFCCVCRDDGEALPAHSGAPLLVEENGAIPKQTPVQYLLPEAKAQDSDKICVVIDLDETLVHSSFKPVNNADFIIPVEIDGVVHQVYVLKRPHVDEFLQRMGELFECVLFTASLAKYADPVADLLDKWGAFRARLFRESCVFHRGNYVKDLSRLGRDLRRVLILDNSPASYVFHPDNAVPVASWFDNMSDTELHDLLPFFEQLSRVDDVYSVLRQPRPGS

[21] = Counterscreen for activators of the function of SWI/SNF related, matrix associated, actin dependent regulator of chromatin, subfamily a, member 2 (SMARCA2, BRM): Luminescence-based cell-based high throughput dose response assay to identify non-selective compounds using the VP16 reporter assay.; format: functional

In the case of `CS(=O)(=O)c1ncc(Cl)c(C(=O)Nc2ccc(N3CCOCC3)cc2)n1`, the AC50 [1] is reported as 24 µM (active), the IC50 [2] is reported as 14.9 µM (active) and the IC50 [3] is reported as > 100 µM (active). The AC50 [4] was 1.21 µM (active), the AC50 [5] was 5.14 µM (active) and the IC50 [6] was 10.2 µM (inactive). For the same compound, the AC50 [7] was 12.9 µM (active), the AC50 [8] was 4.51 µM (active) and the IC50 [9] was > 20 µM (inactive). The EC50 [10] was 12.8 µM (active), the IC50 [11] was 4.79 µM (active) and the AC50 [12] was 22.8 µM (active). For the same compound, the IC50 [13] was > 20 µM (inactive).

In the case of `O=c1nc2sc3ccccc3n2c(=O)n1-c1ccc(Cl)cc1`, the AC50 [14] is reported as 43.9 µM (active).

In the case of `Cc1ccc(C(=O)Nc2cccc(O)c2)cc1S(=O)(=O)N1CCCCCC1`, the AC50 [14] is reported as 321 µM (active).

For `Cc1cc(NC(=O)CSc2nc3c4ccccc4nc-3c(O)n2-c2ccccc2F)no1`, the IC50 [15] was 6.29 µM (active).

With `c1ccc(C[n+]2cccc(-c3ccccc3)c2)cc1` the IC50 [15] was 44.8 µM (inactive).

For `Cc1ccc(CNC(=O)c2nnn(CC(=O)Nc3cc(C)cc(C)c3)c2N)cc1`, the IC50 [16] was 76.5 µM (active), the IC50 [17] was 35.4 µM (active) and the IC50 [18] was > 100 µM (inactive).

In the case of `Cc1ccc(NC(=O)/C=C/c2ccco2)cc1S(=O)(=O)N1CCCCCC1`, the IC50 [15] is reported as 17.7 µM (active).

With `O=C1NC2c3c(Cl)sc(Cl)c3C(=O)C2O1` (centres undefined) the EC50 [19] was > 91 µM (inactive), the IC50 [20] was 3.75 µM (active) and the EC50 [21] was > 91 µM (inactive).
